These results are taken from ChEMBL document CHEMBL4041536, “Design, synthesis and biological activity of novel molecules designed to target PARP and DNA” (Bioorg Med Chem Lett, 2017).

Each structure is given as a SMILES string. The source made the active and inactive calls. No cut-off for these calls is given here.

Series [1] can be described thus: Inhibition of PARP in Wistar rat pancreatic islet nuclear fraction using histone H1 as substrate in presence of [14C]NAD after 10 mins by scintillation counting method.
The species entered for series [2] is Cricetulus griseus. Nature of the series: Inhibition of PARP in chinese hamster VC8 cells harboring BRCA2 mutant assessed as growth inhibition. Format: cell-based.
The species entered for series [3] is Cricetulus griseus. Briefly: Selectivity ratio of PARP inhibition in chinese hamster VC8 cells harboring wild type BRCA2 to PARP inhibition in chinese hamster VC8 cells harboring BRCA2 mutant. Format: cell-based.
Series [4] can be described thus: (§1) Inhibition of PARP in chinese hamster VC8 cells harboring BRCA2 mutant. Format: cell-based, Cricetulus griseus.
Series [5] is filed under the species Cricetulus griseus. The description is as §1. Format: cell-based.
The species named for series [6] is Cricetulus griseus. Briefly: Induction of DNA damage in chinese hamster VC8 cells harboring BRCA2 mutant by comet assay. Format: cell-based.
Series [7] is described as follows: Drug uptake in nucleus of chinese hamster VC8 cells harboring BRCA2 mutant at 25 uM by DAPI staining based fluorescence microscopic method. Format: ADME, Cricetulus griseus.
A short description of series [8]: Drug uptake in nucleus of chinese hamster VC8 cells harboring wild type BRCA2 at 25 uM by DAPI staining based fluorescence microscopic method. Format: ADME, Cricetulus griseus.
The nature of series [9]: Inhibition of PARP (unknown origin). Further details: species or system Homo sapiens.

Consider `NC(=O)c1cccc(N)c1` [3-AMINOBENZAMIDE], for which the IC50 – broadly, the concentration that gives 50% inhibition – in series [1] was 5 to 120 µM. As to `CN(C)/N=N/c1ccc2c3c(cccc13)C(=O)NC2=O`, the inhibition entry in the series filed under Cricetulus griseus [2] is “inactive”. For the same compound, in the series filed under Cricetulus griseus [3], the Selectivity ratio was 2 to 7. In the same order, the values of `CN(CO)/N=N/c1ccc2c3c(cccc13)C(=O)NC2=O` are “inactive” and 2 to 7. Compound `O=c1[nH]ccc2c([N+]3=NN(CCCl)CC3)cccc12` showed an IC50 in series [4] of 23.9 µM. In the case of `Nc1cccc2c(=O)[nH]ccc12`, the inhibition entry in the series filed under Cricetulus griseus [2] is “inactive”. In the case of `CN(C)/N=N/c1cccc2c(=O)[nH]ccc12`, the inhibition result in the series filed under Cricetulus griseus [2] is “inactive”. Besides, the Selectivity ratio in the series filed under Cricetulus griseus [3] was in the range of 2 to 7. For `CN/N=N/c1cccc2c(=O)[nH]ccc12`, in that order: “inactive” and 2 to 7. For `O=C1NC(=O)c2ccc([N+]3=NN(CCCl)CC3)c3cccc1c23.[Cl-]`, the Selectivity ratio in the series listed under Cricetulus griseus [3] came to 25. Moreover, the IC50 in series [4] is 1 to 1.7 µM. Also, in the series filed under Cricetulus griseus [5], the inhibition result is “Dose-dependent effect”. Further, in the series listed under Cricetulus griseus [6], the outcome was Active. Further, the Drug uptake entry in [7] and in [8] was “Not Active” in each case. With `CN(CO)/N=N/c1cccc2c(=O)[nH]ccc12`, in the series listed under Cricetulus griseus [2], the inhibition result is “inactive”. In the series listed under Cricetulus griseus [3], the Selectivity ratio is 2 to 7.

Compound `Cc1nc2ccccc2c(=O)[nH]1` showed an IC50 in series [9] of 5 to 120 µM. `Nc1ccc2c3c(cccc13)C(=O)NC2=O`: the Selectivity ratio in the series filed under Cricetulus griseus [3] was 77. 2.59 µM corresponded to half-maximal inhibition in [4] (IC50). Turning to `ClCCN1CC[N+](c2ccc3ncnc(Nc4cccc(Cl)c4)c3c2)=N1`, the IC50 in [4] is 15.2 µM. For the same compound, in the series listed under Cricetulus griseus [6], the result was Active. On to `CN/N=N/c1ccc2c3c(cccc13)C(=O)NC2=O`, for which the inhibition result in the series listed under Cricetulus griseus [2] was “inactive”. Further, the Selectivity ratio in the series listed under Cricetulus griseus [3] fell in the range of 2 to 7. For the compound `O=C1NC(=O)c2ccc(/N=N/N(CCCl)CCCl)c3cccc1c23`, the inhibition result in the series filed under Cricetulus griseus [2] is “inactive”.
